Earlier results in US9023888B2, “Composition of monoterpenoids having bactericidal properties” (priority 2011, dated 2015).

Key:
[1] = test system: Staph. aureus; settings: broth dilution
[2] = test system: E. coli; settings: for E. coli MBC (v/v %) / E. coli MBC ppm / E. coli MIC (v/v %) / E. coli MIC ppm: broth dilution

Cc1ccc(C(C)C)cc1 [p-cymene]
Staph. aureus MBC (v/v %) [1]: >8.0 v/v %
Staph. aureus MBC ppm [1]: No level
Staph. aureus MIC (v/v %) [1]: >8.0 v/v %
Staph. aureus MIC ppm [1]: No level
antibacterial activity (summary of Table 2 in words) ([2]; E. coli and Staph. aureus data of Table 2): no effect at all
E. coli MBC (v/v %) [2]: >8.0 v/v %
E. coli MBC ppm [2]: No level
E. coli MIC (v/v %) [2]: >8.0 v/v %
E. coli MIC ppm [2]: No level

CC1=CCC(C(C)(C)O)CC1 (centres unmarked) [∝-terpineol]
Staph. aureus MBC (v/v %) [1]: 0.25 v/v %
Staph. aureus MBC ppm [1]: 2500 ppm
Staph. aureus MIC (v/v %) [1]: 0.25 v/v %
Staph. aureus MIC ppm [1]: 2500 ppm
E. coli MBC (v/v %) [2]: 0.06 v/v %
E. coli MBC ppm [2]: 600 ppm
E. coli MIC (v/v %) [2]: 0.06 v/v %
E. coli MIC ppm [2]: 600 ppm
